Data published in article PMC3984052 (Bioorganic & medicinal chemistry, 2014).

How the values were obtained:
[1] = in vivo; for Tolerability after repeated dosing: mouse
[2] = tested on: PrP^C on the cell surface of human T98G glioblastoma cells; assay type: cell-based; settings: EC50 ratio

COc1ccc(Cl)cc1C(=O)N1CCN(c2cccc(Cl)c2)CC1 [IND30802]
Brain concentration relative to the EC50 value determined by ELISA ([1]; female, CD-1, mouse): 100 ×
Tolerability after repeated dosing [1]: well tolerated

NC(=O)c1ccccc1NC(=O)c1cccnc1N1CCCCC1 [IND87406]
Tolerability after repeated dosing [1]: well tolerated

O=C(Cc1ccc(-c2ccccc2)cc1)NCc1ccccc1 [IND116065]
Potency relative to the bromo analog (IND61769) [2]: 5 fold
